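Tested at 5 concentrations; 48 h exposure; 96-well plates; endpoints linearly interpolated, else capped at highest concentration. GI50: concentration for 50% inhibition of growth.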 Activity calls are given as the source filed them. Rule as the data show it: active = GI50 up to about 1.1 µM and inactive = higher.
What was measured:
Experiment in all cases: inhibition of tumour cell growth, NCI panel, 48 h
[1] = tested on: 786-0
[2] = tested on: A498
[3] = tested on: A549
[4] = tested on: ACHN
[5] = tested on: CAKI-1
[6] = tested on: CCRF-CEM
[7] = tested on: COLO 205
[8] = tested on: DU-145
[9] = tested on: EKVX
[10] = tested on: HCT-116
[11] = tested on: HCT-15
[12] = tested on: HOP-62
[13] = tested on: HOP-92
[14] = tested on: HT-29
[15] = tested on: Hs-578T
[16] = tested on: IGROV-1
[17] = tested on: K562
[18] = tested on: KM12
[19] = tested on: LOX IMVI
[20] = tested on: M14
[21] = tested on: MCF7
[22] = tested on: MDA-MB-231
[23] = tested on: MDA-MB-435
[24] = tested on: MDA-N
[25] = tested on: MOLT-4
[26] = tested on: Malme-3M
[27] = tested on: NCI-H226
[28] = tested on: NCI-H23
[29] = tested on: NCI-H460
[30] = tested on: NCI-H522
[31] = tested on: NCI/ADR-RES
[32] = tested on: OVCAR-3
[33] = tested on: OVCAR-4
[34] = tested on: OVCAR-5
[35] = tested on: OVCAR-8
[36] = tested on: PC-3
[37] = tested on: RPMI-8226
[38] = tested on: RXF 393
[39] = tested on: SF-268
[40] = tested on: SF-295
[41] = tested on: SF-539
[42] = tested on: SK-MEL-28
[43] = tested on: SK-MEL-2
[44] = tested on: SK-MEL-5
[45] = tested on: SK-OV-3
[46] = tested on: SN12C
[47] = tested on: SNB-19
[48] = tested on: SR
[49] = tested on: SW-620
[50] = tested on: TK-10
[51] = tested on: U-251
[52] = tested on: UACC-257
[53] = tested on: UACC-62
[54] = tested on: HCC 2998
[55] = tested on: HL-60
[56] = tested on: SNB-75
[57] = tested on: T47D
[58] = tested on: UO-31

For COC(=O)CCc1c(Cc2ccc[nH]2)[nH]c(C(=O)OCc2ccccc2)c1C, the GI50 [1] was 16.3 µM (inactive), the GI50 [2] was 28.9 µM (inactive) and the GI50 [3] was 33.4 µM (inactive). The GI50 [4] was 23.1 µM (inactive), the GI50 [5] was 25.1 µM (inactive) and the GI50 [6] was 60.7 µM (inactive). For the same compound, the GI50 [7] was 17.5 µM (inactive), the GI50 [8] was 75.3 µM (inactive) and the GI50 [9] was 29.6 µM (inactive). For the same compound, the GI50 [10] was 18.6 µM (inactive), the GI50 [11] was 16.1 µM and the GI50 [12] was 19.5 µM (inactive). The GI50 [13] was 23 µM (inactive), the GI50 [14] was 20.4 µM (inactive) and the GI50 [15] was 22.6 µM (inactive). For the same compound, the GI50 [16] was 15.6 µM (inactive), the GI50 [17] was 25.5 µM (inactive) and the GI50 [18] was 16.3 µM (inactive). For the same compound, the GI50 [19] was 19.7 µM (inactive), the GI50 [20] was 16.8 µM (inactive) and the GI50 [21] was 18.5 µM (inactive). The GI50 [22] was 15.3 µM (inactive), the GI50 [23] was 18.3 µM (inactive) and the GI50 [24] was 18 µM (inactive). For the same compound, the GI50 [25] was 24.9 µM (inactive), the GI50 [26] was 18.9 µM (inactive) and the GI50 [27] was 17.1 µM (inactive). For the same compound, the GI50 [28] was 21.2 µM (inactive), the GI50 [29] was > 100 µM (inactive) and the GI50 [30] was 27.3 µM (inactive). For the same compound, the GI50 [31] was 20.6 µM (inactive), the GI50 [32] was 15.8 µM (inactive) and the GI50 [33] was 11.9 µM (inactive). For the same compound, the GI50 [34] was 35.9 µM (inactive), the GI50 [35] was 24.8 µM (inactive) and the GI50 [36] was 18.2 µM (inactive). For the same compound, the GI50 [37] was 39.6 µM (inactive), the GI50 [38] was 20.8 µM (inactive) and the GI50 [39] was 23.2 µM (inactive). The GI50 [40] was 24.6 µM (inactive), the GI50 [41] was 19.1 µM (inactive) and the GI50 [42] was 20.1 µM (inactive). The GI50 [43] was 15.4 µM (inactive), the GI50 [44] was 15.8 µM (inactive) and the GI50 [45] was > 100 µM (inactive). The GI50 [46] was 18.1 µM (inactive), the GI50 [47] was 28.2 µM (inactive) and the GI50 [48] was 30.8 µM (inactive). The GI50 [49] was 21.6 µM (inactive), the GI50 [50] was 26 µM (inactive) and the GI50 [51] was 22.3 µM (inactive). For the same compound, the GI50 [52] was 18.4 µM (inactive) and the GI50 [53] was 26.4 µM (inactive).

COc1ccc2nc3ccc(OC)cc3c(S(=O)(=O)Cc3ccc([N+](=O)[O-])cc3)c2c1 was tested, and the GI50 [1] was 66.4 µM (inactive), the GI50 [2] was > 100 µM (inactive) and the GI50 [3] was > 100 µM (inactive). For the same compound, the GI50 [4] was > 100 µM (inactive), the GI50 [5] was > 100 µM (inactive) and the GI50 [6] was > 100 µM (inactive). The GI50 [7] was > 100 µM (inactive), the GI50 [8] was > 100 µM (inactive) and the GI50 [9] was > 100 µM (inactive). The GI50 [54] was > 100 µM (inactive), the GI50 [10] was > 100 µM (inactive) and the GI50 [11] was > 100 µM. The GI50 [55] was > 100 µM (inactive), the GI50 [12] was 93.5 µM (inactive) and the GI50 [13] was > 100 µM (inactive). For the same compound, the GI50 [14] was 68.7 µM (inactive), the GI50 [16] was > 100 µM (inactive) and the GI50 [17] was > 100 µM (inactive). The GI50 [18] was > 100 µM (inactive), the GI50 [19] was > 100 µM (inactive) and the GI50 [20] was > 100 µM (inactive). The GI50 [21] was > 100 µM (inactive), the GI50 [22] was 61.7 µM (inactive) and the GI50 [23] was > 100 µM (inactive). The GI50 [24] was > 100 µM (inactive), the GI50 [25] was > 100 µM (inactive) and the GI50 [26] was > 100 µM (inactive). For the same compound, the GI50 [27] was > 100 µM (inactive), the GI50 [28] was > 100 µM (inactive) and the GI50 [29] was > 100 µM (inactive). For the same compound, the GI50 [30] was > 100 µM (inactive), the GI50 [31] was > 100 µM (inactive) and the GI50 [32] was > 100 µM (inactive). The GI50 [33] was > 100 µM (inactive), the GI50 [34] was > 100 µM (inactive) and the GI50 [35] was > 100 µM (inactive). For the same compound, the GI50 [36] was > 100 µM (inactive), the GI50 [38] was > 100 µM (inactive) and the GI50 [39] was 85.5 µM (inactive). The GI50 [40] was 61.5 µM (inactive), the GI50 [41] was > 100 µM (inactive) and the GI50 [42] was > 100 µM (inactive). For the same compound, the GI50 [43] was > 100 µM (inactive), the GI50 [45] was > 100 µM (inactive) and the GI50 [46] was > 100 µM (inactive). The GI50 [47] was > 100 µM (inactive), the GI50 [56] was 38.7 µM (inactive) and the GI50 [48] was > 100 µM (inactive). For the same compound, the GI50 [49] was > 100 µM (inactive), the GI50 [57] was > 100 µM (inactive) and the GI50 [50] was > 100 µM (inactive). For the same compound, the GI50 [51] was > 100 µM (inactive), the GI50 [52] was > 100 µM (inactive) and the GI50 [53] was > 100 µM (inactive). For the same compound, the GI50 [58] was > 100 µM (inactive).
